Experimental data as given in article PMC11336009 (GeroScience, 2024).
“Also recorded” adds a separate entry of the source. Where two headings read alike, the source gives them in different places.

How the values were obtained:
[1] = tested on: rat rotenone model of PD; conditions: cited from earlier work
[2] = tested on: 6-OHDA unilateral medial forebrain bundle lesioned rat; test: Tyrosine hydroxylase (TH) immunoreactivity in striatum and SNc of 6-OHDA lesioned rats; assay type: in vivo
Experimental: treatment was initiated either prior to or after 6-OHDA lesioning (early and delayed treatment, respectively) as follows. (1) Early treatment: […] An estimated dose for a 250-g rat under this treatment was 10 mg/kg/day. (2) Delayed treatment: […] An estimated, clinically relevant, dose for a 250 g rat under this treatment was thus 30 mg/kg/day. Specifically for drug admixture into diet, drug was solubilized in 100% ETOH that was then added to the 16.2 g of food chow. Thereafter, the ETOH was evaporated off. […] Animals were weighed twice weekly and the amount of drug added to the chow was modified accordingly to maintain the daily required dose. […] Specifically, the 10 mg/kg oral daily drug dose in our rat studies is equivalent to the routine human daily oral dose (100 mg in a 65 kg human) of these […] used in T2DM, and the 30 mg/kg rat dose is equivalent to a threefold higher dose that is well-tolerated in humans. Following the exact same protocol described in Yin et al., 2012 [34] and Li et al., 2009 [35], anesthetized rats were injected i.c.v. with PF-00734,200 (15.4 nmole in 20 μL sterile physiological saline (n = 6)) or vehicle (sterile physiological saline, 20 μL (n = 8)) using a 25 μL Hamilton syringe at 10 min prior to 6-OHDA lesioning (Supplemental Fig. 2). The coordinates for the i.c.v. injection were 0.8 mm posterior to bregma, 1.2 mm lateral (Left) to midline, and 3.7 mm ventral to the dural surface. The rate of infusion (4 μL/min) was adjusted by a microprocessor-controlled injector mounted to the stereotaxic frame (UMP4; World Precision Instruments, Sarasota, FL, USA). The needle was slowly removed after 2 min upon completion of the injection. Following the exact same protocol described in Yin et al., 2012 [34] and Harvey et al. 2004 [36], anesthetized rats were subjected to a 6-OHDA unilateral medial forebrain bundle lesion. Briefly, 6-OHDA (2.27 μg/μL × 5 μL in 0.9% NaCl containing 0.2 mg/ml ascorbic acid) was unilaterally injected into the medial forebrain bundle (-4.4 mm AP, 1.2 mm ML relative to bregma and 8.4 mm below skull) over 4 min through a syringe pump (Micro 4, WPI, Sarasota, FL), as approved under National Health Research Institutes, Taiwan, Protocol # 102,068-A; 102,102-A. Following this procedure, all animals were monitored daily for adverse signs of health for 1 week (in line with the approved protocols). BrdU and TH localization was determined by immunohistochemistry. Serial sections of the entire brain were cut at 30 μm thickness by cryostat. One series from every sixth section was stained for TH. To control for staining variability, specimens from all experimental groups were included in every batch and reacted together in a net well tray under the same conditions. Sections were rinsed in 0.1 M phosphate buffer (PB), blocked with 4% bovine serum albumin (BSA) and 0.3% Triton x-100 in 0.1 M PB. Sections were then incubated in a primary antibody solution mouse monoclonal anti-TH diluted in 4% BSA and 0.3% Triton x-100 in 0.1 M PB, concentration 1:100 (Chemicon, Temecula, CA) and polyclonal anti-BrdU (1:500, Millipore, MA, USA) for 17-19 h at 4 °C. Sections were then rinsed in 0.1 M PB and incubated in secondary antibodies for 1 h, followed by incubation for 1 h with avidin-biotin-horseradish peroxidase complex. Thereafter, sections were mounted on slides, and coverslipped. TH and BrdU immunoreactivity was examined under a fluorescent microscope. Sections were incubated without primary antibody as a control and observers were blinded as to treatment groups. TH immunoreactivity and BrdU cell number in striatum were averaged from 3 brain sections with visible anterior commissure in each animal. TH immunoreactivity in SNc was measured every 6th Sect. (30 μm per each section) throughout the extent of midbrain. […] volume was analyzed using Cavalieri's method.

[3] = tested on: P-glycoprotein; conditions: at the level of the kidney; cited from earlier work
[4] = tested on: high-fat-fed mice; conditions: cited from earlier work
[5] = Rat pharmacokinetic study: plasma and brain levels after single oral dose; assay type: in vivo; conditions: male, Sprague-Dawley; for concentration at 105 min: po, 10 mg/kg, mean ± SEM
Experimental: A blood sample was obtained and the plasma was separated (10,000 G, 60 s, 4 °C) and frozen to -80 °C. The vasculature was immediately cleared with physiological saline, and a section through the right cerebral hemisphere was obtained and flash frozen to -80 °C.

[6] = tested on: 6-OHDA unilateral medial forebrain bundle lesioned rat; test: Dopamine measurements by HPLC in striatum and SNc of 6-OHDA lesioned rats; assay type: in vivo; conditions: delayed treatment, low dose 10 mg/kg daily p.o. from day 7
Experimental: Gliptin treatment was initiated either prior to or after 6-OHDA lesioning (early and delayed treatment, respectively) as follows. […] An estimated dose for a 250-g rat under this treatment was 10 mg/kg/day. […] An estimated, clinically relevant, dose for a 250 g rat under this treatment was thus 30 mg/kg/day. Specifically for drug admixture into diet, drug was solubilized in 100% ETOH that was then added to the 16.2 g of food chow. Thereafter, the ETOH was evaporated off. […] Animals were weighed twice weekly and the amount of drug added to the chow was modified accordingly to maintain the daily required dose.
Brain samples were collected at 45 days after 6-OHDA lesioning. Striatal and SNc tissues were weighed and stored at − 80 °C until extraction. The tissues obtained from each animal were homogenized in 0.1 M perchloric acid and centrifuged at 13,000 g for 15 min. DA levels were measured by HPLC with electrochemical detection [47]. The analytical column was a Symmetry C18 3.5 µm (4.6 × 150.0 mm) from Waters (Milford, MA). The mobile phase consisted of 0.01 M sodium dihydrogen phosphate, 0.01 M citric acid, 2 mM sodium EDTA, 1 mM sodium octylsulfate, 10% methanol, pH 3.5 and was used at flow rate of 0.9 ml/min and a temperature of 25 °C. […] DA content was calculated as nmole/g of tissue weight.

[7] = delayed treatment 30 mg/kg daily p.o. from day 7, day 21
[8] = early treatment 10 mg/kg daily p.o.
[9] = early treatment 10 mg/kg daily p.o., normalized to non-lesioned side, day 35

| SMILES | Effects in rat rotenone model of PD [1] | TH cell density in the lesioned SNc vs vehicle [2, 7] | TH pixel density in the lesioned striatum vs vehicle [2, 7] | TH immunoreactivity in the lesioned side SNc vs vehicle [2, 8] | TH immunoreactivity in the non-lesioned side SNc [2, 8] | TH pixel density in the lesioned striatum vs vehicle [2, 9] | Substrate for the multi-drug resistance transporter P-glycoprotein [3] | Hippocampal neurogenesis [4] | concentration at 105 min ([5]; brain, rat brain, 105 min after oral 10 mg/kg, read-out: BrFree (brain free concentration)) | concentration at 105 min ([5]; brain, rat brain, 105 min after oral 10 mg/kg, read-out: BrTotal (brain total concentration)) | Kp at 105 min ([5]; brain/plasma, 105 min after oral 10 mg/kg, read-out: Br/Pl ratio (Total)) | concentration at 105 min ([5]; plasma, rat plasma, 105 min (predicted Cmax) after oral 10 mg/kg, n = 5 to 6, read-out: PlTotal (plasma total concentration)) | concentration at 105 min ([5]; plasma, rat plasma, 105 min after oral 10 mg/kg, read-out: PlFree (plasma free concentration)) | TH immunohistochemistry in striatum and SNc vs vehicle ([2]; i.c.v. 15.4 nmole 10 min prior to 6-OHDA lesioning) | DA levels in SNc or striatum vs vehicle ([6]; 10 mg/kg) | DA levels in SNc or striatum vs vehicle ([6]; listed as PF‐00734,200, 10 mg/kg) |
| --- | --- | --- | --- | --- | --- | --- | --- | --- | --- | --- | --- | --- | --- | --- | --- | --- |
| N[C@@H](CC(=O)N1CCn2c(nnc2C(F)(F)F)C1)Cc1cc(F)c(F)cc1F [Sitagliptin] | mitigated motor deficits, striatal DA loss, SNc dopaminergic neuronal degeneration and neuroinflammation | significantly increased | significantly increased | significantly increased | did not alter | significantly increased | substrate | augmented hippocampal neurogenesis |  |  |  |  |  |  |  |  |
| O=C([C@@H]1C[C@H](N2CCN(c3ncccn3)CC2)CN1)N1CCC(F)(F)C1 [PF-00734,200, Gosogliptin] |  | significantly increased | a trend, but not a statistically significant | significantly increased | did not alter | significantly increased |  |  | 0.195 ± 0.0349 µM | 0.574 ± 0.103 µM | 0.62 | 0.922 ± 0.206 µM | 0.83 ± 0.185 µM | lack of neuroprotection; also recorded: no different from similarly vehicle-treated animals | not significantly altered | did not alter DA level |
